From US20150105252A1, “SUBSTITUTED PYRAZOLES AS HERBICIDES” (E I DU PONT DE NEMOURS AND COMPANY, priority 2013, published 2015)

Assays:
barnyardgrass [1] = assay: Test C flooded paddy test; format: in vivo, Echinochloa crus-galli; settings: Flood
Text: At time of treatment, test pots were flooded to 3 cm above the soil surface, treated by application of test compounds directly to the paddy water, and then maintained at that water depth for the duration of the test. Treated plants and controls were maintained in a greenhouse for 13 to 15 days, after which time all species were compared to controls and visually evaluated. […] A dash (-) response means no test result.

barnyardgrass [2] = assay: Test A postemergence; format: in vivo, Echinochloa crus-galli; settings: Postemergence, 1000 g ai/ha; visual rating after approx. 10 days, 0 to 100 scale (0 no effect, 100 complete control)
Procedure, shortened: (§1)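 Injury readout: eye-scored versus untreated controls, 0 to 100. Exposure period: ~10 days, greenhouse. Application: soil-directed spray over sown seed (pre) or spray on seedlings 2–10 cm tall with one or two leaves (post), compound carried in non-phytotoxic solvent including surfactant.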

pigweed [3] = assay: Test A preemergence; format: in vivo, Amaranthus retroflexus; settings: Preemergence, 1000 g ai/ha; 0 to 100 scale, 0 no effect, 100 complete control
Procedure, shortened: as §1

pigweed [4] = assay: Test A postemergence; format: in vivo, Amaranthus retroflexus; settings: Postemergence, 1000 g ai/ha; visual rating after approx. 10 days, 0 to 100 scale (0 no effect, 100 complete control)
Procedure, shortened: as §1

wheat [5] = assay: Test A postemergence; format: in vivo, Triticum aestivum; settings: Postemergence, 1000 g ai/ha; visual rating after approx. 10 days, 0 to 100 scale (0 no effect, 100 complete control)
Procedure, shortened: as §1

foxtail, giant [6] = assay: Test A postemergence; format: in vivo, Setaria faberii; settings: Postemergence, 1000 g ai/ha; visual rating after approx. 10 days, 0 to 100 scale (0 no effect, 100 complete control)
Procedure, shortened: as §1

crabgrass, large [7] = assay: Test A postemergence; format: in vivo, Digitaria sanguinalis; settings: Postemergence, 1000 g ai/ha; visual rating after approx. 10 days, 0 to 100 scale (0 no effect, 100 complete control)
Procedure, shortened: as §1

barnyardgrass [8] = assay: Test A preemergence; format: in vivo, Echinochloa crus-galli; settings: Preemergence, 1000 g ai/ha; 0 to 100 scale, 0 no effect, 100 complete control
Procedure, shortened: as §1

morningglory [9] = assay: Test A postemergence; format: in vivo, Ipomoea spp.; settings: Postemergence, 1000 g ai/ha; visual rating after approx. 10 days, 0 to 100 scale (0 no effect, 100 complete control)
Procedure, shortened: as §1

corn [10] = assay: Test A postemergence; format: in vivo, Zea mays; settings: Postemergence, 1000 g ai/ha; visual rating after approx. 10 days, 0 to 100 scale (0 no effect, 100 complete control)
Procedure, shortened: as §1

foxtail, giant [11] = assay: Test A preemergence; format: in vivo, Setaria faberii; settings: Preemergence, 1000 g ai/ha; 0 to 100 scale, 0 no effect, 100 complete control
Procedure, shortened: as §1

velvetleaf [12] = assay: Test A preemergence; format: in vivo, Abutilon theophrasti; settings: Preemergence, 1000 g ai/ha; 0 to 100 scale, 0 no effect, 100 complete control
Procedure, shortened: as §1

corn [13] = assay: Test A preemergence; format: in vivo, Zea mays; settings: Preemergence, 1000 g ai/ha; 0 to 100 scale, 0 no effect, 100 complete control
Procedure, shortened: as §1

ducksalad = assay: Test C flooded paddy test; format: in vivo, Heteranthera limosa; settings: Flood
Procedure, shortened: (§2)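 Visual injury ratings against untreated controls, taken 13 to 15 days after compound was added to paddy water standing 3 cm above the soil.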

sedge, umbrella = assay: Test C flooded paddy test; format: in vivo, Cyperus difformis; settings: Flood
Procedure, shortened: as §2

morningglory [14] = assay: Test A preemergence; format: in vivo, Ipomoea spp.; settings: Preemergence, 1000 g ai/ha; 0 to 100 scale, 0 no effect, 100 complete control
Procedure, shortened: as §1

velvetleaf [15] = assay: Test A postemergence; format: in vivo, Abutilon theophrasti; settings: Postemergence, 1000 g ai/ha; visual rating after approx. 10 days, 0 to 100 scale (0 no effect, 100 complete control)
Procedure, shortened: as §1

rice = assay: Test C flooded paddy test; format: in vivo, Oryza sativa; settings: Flood
Procedure, shortened: as §2

wheat [16] = assay: Test A preemergence; format: in vivo, Triticum aestivum; settings: Preemergence, 1000 g ai/ha; 0 to 100 scale, 0 no effect, 100 complete control
Procedure, shortened: as §1

crabgrass, large [17] = assay: Test A preemergence; format: in vivo, Digitaria sanguinalis; settings: Preemergence, 1000 g ai/ha; 0 to 100 scale, 0 no effect, 100 complete control
Procedure, shortened: as §1

[18] = 31 g ai/ha, scale 0 to 100 (0 no effect, 100 complete control)
[19] = 62 g ai/ha, scale 0 to 100 (0 no effect, 100 complete control)

SMILES	Plant response rating, Barnyardgrass (barnyardgrass [1]; [18])	Plant response rating, Barnyardgrass (barnyardgrass [1]; [19])	Plant response rating, Barnyardgrass (barnyardgrass [1]; 125 g ai/ha, scale 0 to 100)	Plant response rating, Barnyardgrass (barnyardgrass [1]; 250 g ai/ha, scale 0 to 100)	Barnyardgrass plant response rating (barnyardgrass [2])	Pigweed plant response rating (pigweed [3])	Pigweed plant response rating (pigweed [4])	Wheat plant response rating (wheat [5])	Foxtail, Giant plant response rating (foxtail, giant [6])	Crabgrass, Large plant response rating (crabgrass, large [7])	Barnyardgrass plant response rating (barnyardgrass [8])	Morningglory plant response rating (morningglory [9])	Corn plant response rating (corn [10])	Foxtail, Giant plant response rating (foxtail, giant [11])	Velvetleaf plant response rating (velvetleaf [12])	Corn plant response rating (corn [13])	Plant response rating, Ducksalad (ducksalad; [18])	Plant response rating, Ducksalad (ducksalad; [19])	Plant response rating, Ducksalad (ducksalad; 125 g ai/ha, scale 0 to 100)	Plant response rating, Ducksalad (ducksalad; 250 g ai/ha, scale 0 to 100)	other results
CCc1cc(C(=O)NCC2CC2)nn1Cc1cccc(OC(F)(F)F)c1 [Compound 53]	0	0	0	15	40	100	80	30	50	50	40	90	40	90	30	10	0	0	0	40	Plant response rating, Sedge, Umbrella (sedge, umbrella; [18]): 0; Plant response rating, Sedge, Umbrella (sedge, umbrella; [19]): 0; Plant response rating, Sedge, Umbrella (sedge, umbrella; 125 g ai/ha, scale 0 to 100): 0; Plant response rating, Sedge, Umbrella (sedge, umbrella; 250 g ai/ha, scale 0 to 100): 80; Morningglory plant response rating (morningglory [14]): 40; Velvetleaf plant response rating (velvetleaf [15]): 80; Plant response rating, Rice (rice; [18]): 0; Plant response rating, Rice (rice; [19]): 0; Plant response rating, Rice (rice; 125 g ai/ha, scale 0 to 100): 10; Plant response rating, Rice (rice; 250 g ai/ha, scale 0 to 100): 30; Wheat plant response rating (wheat [16]): 0; Crabgrass, Large plant response rating (crabgrass, large [17]): 100
CCCc1cc(C(=O)NCC(F)(F)F)nn1Cc1cccc(OC(F)(F)F)c1 [Compound 32]	0	0	0	0	40	100	100	20	50	70	70	100	30	100	30	0	10	20	50	70	Plant response rating, Sedge, Umbrella (sedge, umbrella; [18]): 20; Plant response rating, Sedge, Umbrella (sedge, umbrella; [19]): 30; Plant response rating, Sedge, Umbrella (sedge, umbrella; 125 g ai/ha, scale 0 to 100): 50; Plant response rating, Sedge, Umbrella (sedge, umbrella; 250 g ai/ha, scale 0 to 100): 80; Morningglory plant response rating (morningglory [14]): 50; Velvetleaf plant response rating (velvetleaf [15]): 80; Plant response rating, Rice (rice; [18]): 0; Plant response rating, Rice (rice; [19]): 0; Plant response rating, Rice (rice; 125 g ai/ha, scale 0 to 100): 0; Plant response rating, Rice (rice; 250 g ai/ha, scale 0 to 100): 0; Wheat plant response rating (wheat [16]): 0; Crabgrass, Large plant response rating (crabgrass, large [17]): 100
CCCc1cc(C(=O)NCC)nn1Cc1cccc(OC(F)(F)F)c1 [Compound 33]	0	0	0	0	30	90	80	20	70	80	40	100	20	90	40	0	0	10	20	80	Plant response rating, Sedge, Umbrella (sedge, umbrella; [18]): 10; Plant response rating, Sedge, Umbrella (sedge, umbrella; [19]): 30; Plant response rating, Sedge, Umbrella (sedge, umbrella; 125 g ai/ha, scale 0 to 100): 30; Plant response rating, Sedge, Umbrella (sedge, umbrella; 250 g ai/ha, scale 0 to 100): 85; Morningglory plant response rating (morningglory [14]): 40; Velvetleaf plant response rating (velvetleaf [15]): 80; Plant response rating, Rice (rice; [18]): 0; Plant response rating, Rice (rice; [19]): 0; Plant response rating, Rice (rice; 125 g ai/ha, scale 0 to 100): 0; Plant response rating, Rice (rice; 250 g ai/ha, scale 0 to 100): 0; Wheat plant response rating (wheat [16]): 10; Crabgrass, Large plant response rating (crabgrass, large [17]): 100
CCCc1cc(C(=O)NC2CC2)nn1Cc1cccc(OC(F)(F)F)c1 [Compound 34]	0	0	0	20	50	80	100	30	90	90	60	100	40	100	30	10	0	10	30	80	Plant response rating, Sedge, Umbrella (sedge, umbrella; [18]): 0; Plant response rating, Sedge, Umbrella (sedge, umbrella; [19]): 10; Plant response rating, Sedge, Umbrella (sedge, umbrella; 125 g ai/ha, scale 0 to 100): 70; Plant response rating, Sedge, Umbrella (sedge, umbrella; 250 g ai/ha, scale 0 to 100): 80; Morningglory plant response rating (morningglory [14]): 60; Velvetleaf plant response rating (velvetleaf [15]): 100; Plant response rating, Rice (rice; [18]): 0; Plant response rating, Rice (rice; [19]): 0; Plant response rating, Rice (rice; 125 g ai/ha, scale 0 to 100): 0; Plant response rating, Rice (rice; 250 g ai/ha, scale 0 to 100): 10; Wheat plant response rating (wheat [16]): 20; Crabgrass, Large plant response rating (crabgrass, large [17]): 100
